pIC50: −log10 of the molar value. Read-outs that look alike come from different tables or passages of the source. Numbered stars: 1 amine (or outer) side, 2 acyl side, 3 side chain; on linkers, the order of the positions; unused ones are H or OH. Square brackets hold non-standard residues; d marks the D form. Peptide text beside a SMILES is read from it. * marks the point of attachment. d(hArg) = N=C(N)NCCCC[C@@H](N)C(=O)O; Hydrocinnamoyl = O=C(CCc1ccccc1)*; dCit = NC(=O)NCCC[C@@H](N)C(=O)O; Suc = O=C(CCC(=O)[*:2])[*:1]; Boc = CC(C)(C)OC(=O)*; Aib = CC(C)(N)C(=O)O A value given as a limit tells only on which side of the number the result lay.

Data set [1] has as its target factor Xa (Homo sapiens, UniProt P00742). The experiment in a line: Factor Xa amidolytic assay (chromogenic substrate S-2765). It is filed as biochemical.
In data set [2] the target is prothrombinase complex (Homo sapiens, UniProt P00742). The experiment in a line: Prothrombinase inhibition assay, plasma free system. It is filed as biochemical. The conditions noted are these: 5 min preincubation, factor Xa 0.5 nM, factor Va 2 nM, pH 7.5; read-out: Inhibitory Activity (IC50) Prothrombinase.
Chain of prothrombinase complex (P00742 235-488 limits assumed): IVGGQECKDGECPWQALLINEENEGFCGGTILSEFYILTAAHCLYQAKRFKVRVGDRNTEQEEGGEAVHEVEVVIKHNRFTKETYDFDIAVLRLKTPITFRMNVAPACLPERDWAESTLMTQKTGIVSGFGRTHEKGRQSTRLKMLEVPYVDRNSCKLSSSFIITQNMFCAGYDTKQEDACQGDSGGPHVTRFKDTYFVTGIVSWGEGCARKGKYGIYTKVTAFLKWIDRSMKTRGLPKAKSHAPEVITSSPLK
Chain of prothrombinase complex (P00742 41-179 limits assumed): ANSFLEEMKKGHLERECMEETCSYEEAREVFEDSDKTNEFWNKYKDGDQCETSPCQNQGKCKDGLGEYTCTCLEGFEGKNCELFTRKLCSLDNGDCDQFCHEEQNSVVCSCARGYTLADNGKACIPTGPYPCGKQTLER
Data set [3] addresses T1, thrombin (Homo sapiens, UniProt P00734).
T1 construct: The formation of thrombin is the result of the proteolytic cleavage of its precursor prothrombin
The experiment in a line: Thrombin amidolytic assay (Chromozym TH). It is filed as biochemical.

The nature of data set [4]: Pharmacokinetics/Pharmacodynamics in rabbits after I.V. bolus. It is filed as in vivo. The conditions noted are these: rabbit.
Data set [5] deals with thrombus growth in abdominal vena cava. The data set is described as follows: Rabbit deep vein thrombosis model. It is filed as in vivo. The conditions noted are these: for Hct / PLT / RBC / WBC: mean±SD. The source says: Haemost. […] Rabbits were anesthetized with I.M. injections of Ketamine, Xylazine, and Acepromazine cocktail.
Where [6] appears, read: 5 min preincubation, room temperature, pH 7.5, read-out: Inhibitory Activity (IC50) Factor Xa.
[7] abbreviates: 5 min preincubation, room temperature, pH 7.5, read-out: Inhibitory Activity (IC50) Thrombin.

Chain of factor Xa (P00742 235-488 limits assumed): as the sequence (P00742 235-488 limits assumed) above
Chain of factor Xa (P00742 41-179 limits assumed): as the sequence (P00742 41-179 limits assumed) above

Take `CC(C)(C)OC(=O)N[C@H](CCCNC(=N)N)C(=O)NC(C)(C)C(=O)N[C@H](C=O)CCCNC(=N)N` [Boc--D--Arg--Aib--Arg--H, Boc-D-Arg-Aib-Arg-H] (Boc-[dR]-[Aib]-Arg-aldehyde): the pIC50 in data set [1] (setting [6]) was 6.26.
Take `CC(C)(C)OC(=O)N[C@H](CCCCNC(=N)N)C(=O)NCC(=O)N[C@H](C=O)CCCNC(=N)N` [Boc--D--Har--Gly--Arg--H, Boc-D-Har-Gly-Arg-H] (Boc-[d(hArg)]-Gly-Arg-aldehyde): the figures for the pIC50 in data set [1] (setting [6]), in data set [2] and in data set [3] (setting [7]) were 7.00, 6.76 and 3.39, respectively.
Consider `CC(C)(C)OC(=O)N[C@H](CCCNC(=N)N)C(=O)NCC(=O)N[C@H](C=O)CCCNC(=N)N` [Boc--D--Arg--Gly--Arg--H, Boc-D-Arg-Gly-Arg-H] (Boc-[dR]-Gly-Arg-aldehyde), for which the pIC50 in data set [1] (setting [6]) is 7.30. In addition, the anticoagulative effect result in data set [4] (2.0 mg/kg I.V. bolus) was “plasma concentration-dependent anticoagulative effect”. The “% Inhibition of Thrombosis” value in data set [5] (200 + 1.98 μg/kg + μg/kg/min) was 8.4%; in data set [5] (600 + 5.94 μg/kg + μg/kg/min), -6.6%; in data set [5] (1000 + 9.90 μg/kg + μg/kg/min) it was 58.6%; in data set [5] (1500 + 14.85 μg/kg + μg/kg/min) it was 31.4%. The “antithrombotic efficacy in the rabbit venous thrombosis model” value in data set [5] (bolus + infusion, all doses evaluated) is “demonstrated antithrombotic efficacy at the higher doses evaluated”.
For `N=C(N)NCCC[C@@H](C=O)NC(=O)CNC(=O)[C@@H](CCCNC(=N)N)NS(=O)(=O)Cc1ccccc1` [PhCH2 SO2 --D--Arg--Gly--Arg--H, Benzylsulfonyl-D-Arg-Gly-Arg-H], in data set [3], the pIC50 is 4.48.
Take `N=C(N)NCCC[C@@H](C=O)NC(=O)CNC(=O)[C@@H](CCCNC(=N)N)NC(=O)CCC(=O)O` [HOOC(CH2)2 CO--D--Arg--Gly--Arg--H, Succinoyl-D-Arg-Gly-Arg-H] (Suc-[dR]-Gly-Arg-aldehyde): in data set [1] (setting [6]), the pIC50 is 6.65.
As for `N=C(N)NCCC[C@@H](C=O)NC(=O)CNC(=O)[C@@H](CCCNC(=N)N)NC(=O)CC(=O)O` [HOOCCH2 CO--D--Arg--Gly--Arg--H, Malonoyl-D-Arg-Gly-Arg-H], in data set [1], the pIC50 is 7.01.
On to `CC(C)(C)OC(=O)N[C@H](CCCNC(N)=O)C(=O)NCC(=O)N[C@H](C=O)CCCN=C(N)N` [Boc--D--Cit--Gly--Arg--H, Boc-D-Cit-Gly-Arg-H] (Boc-[dCit]-Gly-Arg-aldehyde), for which the pIC50 in data set [1] is 5.30; in data set [2], 4.36.
On to `CC(C)(C)OC(=O)N[C@H](CCCNC(=N)N)C(=O)NCCC(=O)N[C@H](C=O)CCCNC(=N)N` [Boc--D--Arg--β-Ala--Arg--H, Boc-D-Arg-β-Ala-Arg-H], for which the pIC50 in data set [3] (setting [7]) is < 3.30.
`N=C(N)NCCC[C@@H](C=O)NC(=O)CNC(=O)[C@@H](CCCNC(=N)N)NC(=O)COc1ccc2ccccc2c1` [2-NaphthoxyAc--D--Arg--Gly--Arg--H, 2-Napthoxyacetyl-D-Arg-Gly-Arg-H]: the pIC50 in data set [3] is < 4.00.
As for `N=C(N)NCCC[C@@H](C=O)NC(=O)CNC(=O)[C@@H](CCCNC(=N)N)NC(=O)C(=O)O` [HOOCCO--D--Arg--Gly--Arg--H, Oxaloyl-D-Arg-Gly-Arg-H], the pIC50 in data set [2] was 6.20.
As to `C[C@@H](NC(=O)[C@@H](CCCNC(=N)N)NC(=O)OC(C)(C)C)C(=O)N[C@H](C=O)CCCNC(=N)N` [Boc--D--Arg--D--Ala--Arg--H, Boc-D-Arg-D-Ala-Arg-H] (Boc-[dR]-[dA]-Arg-aldehyde), the pIC50 in data set [1] (setting [6]) was 6.64.
The same measure, in the same setting: the result for `CC(C)(C)OC(=O)N[C@H](CCCCN)C(=O)NCC(=O)N[C@H](C=O)CCCNC(=N)N` [Boc--D--Lys--Gly--Arg--H, Boc-D-Lys-Gly-Arg-H] (Boc-[dK]-Gly-Arg-aldehyde) reads 5.00.
With `CC(C)(C)OC(=O)N[C@H](CCCN=C(N)N)C(=O)NCC(=O)N[C@H](C=O)CCCN=C(N)N` [Boc--D--Arg--Gly--Arg--H, Boc-D-Arg-Gly-Arg-H] (Boc-[dR]-Gly-Arg-aldehyde), the “changes in hematological parameters as compared to saline controls” value in data set [4] (2.0 mg/kg I.V. bolus) is recorded as “no significant changes”. Besides, in data set [4] (I.V.), the “mean clearance value (CL)” value is 1.16 mL/min/kg and the volume of distribution was found to be 0.1183 L/kg. In addition, the mean plasma half-life in data set [4] (I.V., n=3) came out at 1.18 h. In addition, in data set [5] (200 + 1.98 μg/kg + μg/kg/min), the Hct came out at 36.9 ± 3.90%, the PLT is recorded as 393 ± 84 10^3 /μL, the RBC is on record as 5.69 ± 0.14 10^6 /μL and the WBC is 4.45 ± 0.97 10^3 /μL. For the same compound, in data set [5] (600 + 5.94 μg/kg + μg/kg/min), the Hct is 35.3 ± 3.01%, the PLT is on record as 442 ± 81 10^3 /μL, the RBC is 5.74 ± 0.48 10^6 /μL and the WBC is recorded as 3.87 ± 0.65 10^3 /μL. Also, in data set [5] (1000 + 9.90 μg/kg + μg/kg/min), the Hct is recorded as 35.5 ± 1.01%, the PLT is listed as 375 ± 73 10^3 /μL, the RBC is 5.71 ± 0.28 10^6 /μL and the WBC is reported as 5.09 ± 1.61 10^3 /μL. Moreover, in data set [5] (1500 + 14.85 μg/kg + μg/kg/min), the Hct is listed as 36.0 ± 3.31%, the PLT is 433 ± 22 10^3 /μL, the RBC was 5.80 ± 0.50 10^6 /μL and the WBC is on record as 4.82 ± 1.01 10^3 /μL. In addition, in data set [5] (bolus + infusion), the “effects on hematological parameters as compared to saline controls” value is given as “no significant effects”.
Turning to `NC(N)=NCCC[C@@H](C=O)NC(=O)CNC(=O)[C@H](N)CCCN=C(N)N` [H--D--Arg--Gly--Arg--H, D-Arg-Gly-Arg-H] (H-[dR]-Gly-Arg-aldehyde), the pIC50 in data set [1] was 7.19; in data set [2] it was 6.08; in data set [3], 4.39.
In the case of `CN(C)C(=NCCCC[C@@H](NC(=O)OC(C)(C)C)C(=O)NCC(=O)N[C@H](C=O)CCCNC(=N)N)N(C)C` [Boc--D--Har((CH3)4)--Gly--Arg--H, Boc-D-Har((CH3)4)-Gly-Arg-H], the pIC50 in data set [3] (setting [7]) is < 4.00.
For `N=C(N)NCCC[C@@H](C=O)NC(=O)CNC(=O)[C@@H](CCCNC(=N)N)NC(=O)CCc1ccccc1` [PhCH2 CH2 CO--D--Arg--Gly--Arg--H, 3-Phenylpropanoyl-D-Arg-Gly-Arg-H] (Hydrocinnamoyl-[dR]-Gly-Arg-aldehyde), the pIC50 was 6.70 in data set [1] (setting [6]), 5.70 in data set [2] and 4.12 in data set [3] (setting [7]).
Regarding `C[C@H](NC(=O)[C@@H](CCCNC(=N)N)NC(=O)OC(C)(C)C)C(=O)N[C@H](C=O)CCCNC(=N)N` [Boc--D--Arg--Ala--Arg--H, Boc-D-Arg-Ala-Arg-H] (Boc-[dR]-Ala-Arg-aldehyde), in data set [1] (setting [6]), the pIC50 is 6.78.
`CCOC(=O)N[C@H](CCCN=C(N)N)C(=O)NCC(=O)N[C@H](C=O)CCCN=C(N)N` [EtOCO--D--Arg--Gly--Arg--H, EtO2 C-D-Arg-Gly-Arg-H] gave a pIC50 in data set [1] of 7.31.

The values above are taken from US5721214A, “Inhibitors of factor Xa” (COR Therapeutics, Inc., priority 1995, dated 1998).
